Reference: EP0337167B1, “4-Aryl-4-piperidine (or pyrrolidine or hexahydroazepine) carbinols and heterocyclic analogs thereof” (THE DU PONT MERCK PHARMACEUTICAL COMPANY, priority 1988, dated 1989)
Where two headings read alike, the source gives them in different places.

Tests used:
[1] = literature statement (A. L. Morrison et al., J.Chem. Soc., 1467, 1950); cited from earlier work
[2] = system: Male CF1 mice; test: Mouse antiphenylquinone writhing (PQW) test; type: in vivo; conditions: Table 3; for ED50: Mus musculus, 0.5 h, phenylquinone 1.25 mg/kg i.p., observation beginning 30 min after injection of test compound
Method: The anti-pheylquinone writhing (PQW) test modified from the methods of Siegmund et al. (Proc. Soc. Exp. Biol. Med. 95: 729-731, 1957) and Blumberg et al. (Proc. Exp. Biol. Med. 118: 763-767, 1965) was used to assess analgesia in mice. Male CF1 mice (Charles River Breeding Laboratories, Wilmington, MA), fasted for 16-22 h and weighing 18-23 g, were injected with randomized and coded doses of test compounds, then challenged with 1.25 mg/kg i.p. phenyl-p-benzoquinone (phenylquinone) 5 min prior to the specified observation time. The phenylquinone solution (0.1 mg/ml in 5% aqueous ethanol) was prepared daily and stored in foil-wrapped amber bottles to limit degradation. Mice were observed 10 min for the presence or absence of the characteristic abdominal constriction and stretching response beginning 30 min after injection of the test compound. Analgetic activity was calculated as the percentage of mice failing to respond to the phenylquinone challenge dose. […] Median effective doses (ED50's) and 95% confidence limits were determined numerically by the methods of Thompson (Bacteriological Rev. 11: 115-145, 1947), and Litchfield and Wilcoxon (J. Pharmacol. Exp. Ther. 96: 99.113, 1949).
The data shown in Table show the PQW ED₅₀ values for the compounds of the aforesaid examples.
Table 4 illustrates that the 3° carbinols within the scope of U.S. 4,485,109 have utility as analgesic agents.

[3] = system: Male mice; test: Anorexia test from CNS screen (consumption of sweetened condensed milk spots); type: in vivo; conditions: Mus musculus; fasted male mice, oral doses, 0.5 h after administration, 10 min access to milk; read-out: ED₅₀ for Anorexia
Method: Male mice weighing 18-25 grams and fasted over-night for 17-21 h were used in these studies. At 0.5 h after administration of graded oral doses of compound prepared in aqueous Methocel® (methylcellulose, viscosity 100 mPa·s (CPS), grade A15C, Dow Chemical Co.) and dosed at 0.1 ml per 10 grams of body weight, each mouse was transferred to an individual, clear, Lucite® compartment (13.3 cm x 12.7 cm x 12.7 cm) with a wire mesh floor having 0.64 cm x 0.64 cm openings. Five compartments were linearly arranged in each cage unit. Inside each compartment was a section of a black Lucite® bar (13 cm x 1.2 cm x 1.2 cm), in the top of which were ten spot depressions (0.8 cm diameter), each containing 0.05 ml of 50% sweetened condensed milk. Ten (10) minutes later the mice were removed from to the compartments and the number of milk spots consumed by each mouse was counted. Fractions of spots consumed were also estimated and counted. Data were expressed as % decrease from control. ED₅₀ values were estimated using linear regression analysis.

[4] = system: Male CF mice; test: Antagonism of tetrabenazine-induced depression (exploratory loss and ptosis) in mice; type: in vivo; conditions: Mus musculus, po, 1 h, orally, one hour post-drug, tetrabenazine methane sulfonate 52 mg/kg i.p.
Excerpt: The prevention of tetrabenazine-induced sedation and depression in mice is a standard procedure used to detect and compare antidepressant compounds. The activity of antidepressant compounds in this procedure correlates well with human efficacy. (Barnett, et al., Int. J. Neuropharmac. 8: 73-79, 1969, and Vernier, et al., "The Pharmacodynamics of Amitriptyline" in Psychsomatic Medicine (Nodine & Moyer, editors) pp. 683-690, 1962).
Male CF mice (Charles River Breeding Laboratories, Wilmingon, MA), fasted for 16-22 hours and weighing 18-25 g, were injected with randomized and coded does of test compounds, then challenged with 52 mg/kg i.p. tetrabenazine methane sulfonate 30 minutes prior to the specified observation time. The tetrabenazine methane sulfonate solution (5.2 mg/ml in distilled water) was prepared daily and stored in foil-wrapped amber bottles to limit degradation. […] Exploratory loss was defined as failing to move to the perimeter of a 12.7 cm (5 inch) (12.7 cm) circle within 15 seconds of being placed at the center of the circle. Ptosis was defined as both eyelids closed 50% or more compared to normal. Antidepressant activity was calculated as the percentage of mice failing to respond to the tetrabenazine challenge dose. […] Median effective does (ED₅₀'s) were estimated using the Moving Average method of Thompson (Bacteriological Rev. 11: 115-145, 1947).
The data in Table 5 show ED₅₀ values for the compounds of the aforesaid examples.

[5] = po, p.o., read-out: Mouse PQW ED₅₀ (Mg/Kg) P.O
[6] = sc, s.c., read-out: Mouse PQW ED₅₀ (Mg/Kg) S.C
[7] = read-out: Oral ED₅₀ (mg/kg) for Prevention of Ptosis

Compound	analgesic activity compared with the parent ketones [1]	ED50 [2, 5]	ED50 [2, 6]	ED50 [3]	ED50 [4, 7]	Mouse PQW remark ([2]; remark beside S.C and P.O values)	ED50 ([4]; read-out: Oral ED₅₀ (mg/kg) for Prevention of Exploratory Loss)
CC(O)C1(c2ccccc2)CCN(C)CC1 (stereo not shown) [Example 3, 4-phenyl-1-methyl-4-(1-hydroxyethyl)piperidine]	much less active as analgesics than the parent ketones	38 mg/kg	19 mg/kg				
CC(O)C1(c2ccc(C(F)(F)F)cc2)CCN(C)CC1 (stereo not drawn) [Example 16, 4(4'-Trifluoromethylphenyl)-α-1-dimethylpiperidinemethanol]		> 81 mg/kg	> 81 mg/kg	22 mg/kg	28 mg/kg	Inactive	
CC(O)C1(c2cccc(Cl)c2)CCN(C)CC1 (stereo not drawn) [Example 1, 4-(3'-Chlorophenyl)-α,1-dimethyl-4-piperidinemethanol]		19 mg/kg	8.1 mg/kg	20 mg/kg	0.74 mg/kg		0.92 mg/kg
